Measured values published in publication PMC4801406, “MTH1 Substrate Recognition—An Example of Specific Promiscuity” (PLoS ONE, 2016).
Several values for one entry are separate records, joined by “and”; a condition that tells them apart may be missing. Equal values may be shown once. Read-outs that look alike come from different tables or passages of the source.

Assays:
MTH1 [1] = biological target: T1, MTH1 (Homo sapiens, UniProt P36639); assay: 2D-NMR (1H-15N SOFAST-HMQC) titration, Kd from chemical shift perturbations; format: binding; settings: 100 μM 15N-MTH1, 298 K, pH 7.4
T1 construct: Full length p18 isoform MTH1 (M1-156) with an N-terminal 6-His TEV protease cleavable tag; 6-His (TEV-cleavable) (N, cleaved yes); made in house; host or cells: E. coli Gold BL21(DE3)
Description: Uniformly ^15N-labeled MTH1 was prepared as above with the TB media replaced M9 minimal media supplemented with 5 g/l of IsoGro base powder (^15N, 98%, Isotec) and 2 g/l of glucose. NMR samples were 100 μM in 50mM HEPES pH 7.4, 50 mM NaCl, 1 mM TCEP, 0.1 mM EDTA, 0.02% NaN3 and employing 1% d^6-DMSO as a lock signal. Spectra were acquired at 298 K on a Bruker Avance 600 MHz spectrometer running Topspin 2.1, equipped with a 5mm TCI cryoprobe with Z-axis gradients. The protein was titrated with compound stocks (100 mM in d6-DMSO) to give typical final compound concentrations 0, 50, 100, 198, 396, 593, 984, 1949 and 3824 μM; these were measured using ^1H-^15N-SOFAST-HMQC [17] experiments recorded with […] (t2,t1) complex points (in States-TPPI mode), and 9615x1624 Hz (^1H,^15N) spectral widths, (53.4 ms x 30.8 ms) acquisition times, respectively). The affinity of the compounds was determined via simultaneous nonlinear fitting of fast-exchange chemical shift perturbations (typically 5 amide correlations, employing absolute value of the linear ^1H,^15N chemical shift vector), with the GraFit package against compound concentration using a mass action binding isotherm equation.

MTH1 [2] = biological target: T1, MTH1; assay: Biochemical IC50 for fragments (Fig 5)
MTH1 [3] = biological target: T1, MTH1; assay: MTH1 substrate Km determination (PPiLight pyrophosphate detection; malachite green coupled assay); format: biochemical; settings: this publication; 0.2 nM MTH1, substrate 0–300 μM
Description: MTH1 substrate Km determination assay conditions were 0.2 nM MTH1 and a concentration range of substrate from 0–300 μM, diluted in MTH1 reaction buffer (100 mM HEPES pH 7.5, 10 mM MgCl, 1 mM DTT and 0.005% Tween 20). After a reaction time of 15 minutes, pyrophosphate (PPi) released by the reaction was detected using the PPiLight inorganic pyrophosphate assay kit from Lonza and luminescence was monitored using the Perkin Elmer EnVision multimode plate reader. Substrates dGTP and 2-OH—dATP were sourced from Jena Bioscience. Substrates 8-oxo-dGTP, 8-oxo-rGTP, 8-oxo-dATP, 8-oxo-rATP and 2-OH-rATP were sourced from TriLink BioTechnologies.
All oxidised ATP-derived substrates were then tested using an assay format based on the enzymatic hydrolysis of the nucleotide substrate by purified human recombinant MTH1 to form the corresponding monophosphate nucleotide and pyrophosphate. An excess of inorganic pyrophosphatase was added to the assay, which allows the quantification of released inorganic phosphate as a measure of product levels in a coupled enzymatic assay. Inorganic phosphate was measured using an absorbance assay based on malachite green as described by Baykov et al.. The assay buffer in which MTH1, inorganic pyrophosphatase and substrates were diluted consisted of 100mM Tris at pH 7.4, 40 mM NaCl, 10 mM MgCl, 0.005% Tween 20 and 1 mM DTT. The final conditions in the assay during enzymatic incubation were 0.2 nM recombinant human MTH1, a three fold dilution range of 0–300 μM oxidised nucleotide substrate and 0.2U per ml inorganic pyrophosphatase.

MTH1 [4] = biological target: T1, MTH1; settings: literature value, cited from earlier work
[5] = biological target: T2, Histidine-tagged MTH1 (isoform p18 (M1-V156)) (Homo sapiens, UniProt P36639); assay: Surface plasmon resonance (SPR) equilibrium binding; settings: steady-state, 1:1 Langmuir fit
T2 construct: Histidine-tagged MTH1 (isoform p18 (M1-V156)) was immobilized; made in house; host or cells: E. coli Gold BL21(DE3)
Description: SPR experiments were performed using a Biacore T200 biosensor (GE Healthcare). Series S NTA sensor chips (GE Healthcare) were used. All experiments were carried out using assay buffer containing; 50 mM HEPES pH 7.5, 150 mM NaCl, 0.005% Tween-20 (v/v) and 1% DMSO (v/v) as running buffer. Typically, 10 mM DMSO stocks of compounds were diluted 1:100 (v/v) in 50 mM HEPES pH 7.5, 150 mM NaCl, 0.005% Tween-20 (v/v) to form 100 μM intermediate stocks with final DMSO concentration of 1% (v/v). The intermediate solutions were then subsequently diluted using assay buffer to achieve final concentration range.
Histidine-tagged MTH1 (isoform p18 (M1-V156)) was immobilized as the ligand onto NTA sensor chips using a capture coupling method. Assay buffer was used as immobilization buffer. The nitrilotriacetic (NTA) surface was first activated with a 2-min injection of 500 μM NiCl2 in running buffer before the carboxymethyl dextran surface was activated with a 7-min injection of a 1:1 ratio of 0.4 M EDC and 0.1 M NHS. His-tagged protein was diluted into running buffer to a concentration of 20 μg/mL and immobilized to the surface with a 7-min injection. Remaining activated groups were blocked with two consecutive 60-sec pulses of 0.5 M Ethanolamine. Typical immobilization levels ranged from 500 to 3000 resonance units (RU).
Biacore T200 Evaluation software (GE Healthcare) was used for data processing and analysis. Equilibrium binding analysis was analyzed by plotting steady-state response level vs. compound concentration and fitting to the Langmuir equation (describing simple 1:1 binary interaction).

| SMILES | Kd (MTH1 [1]) [µM] | IC50 (MTH1 [2]) [µM] | Km (MTH1 [3]) | Km (MTH1 [4]; ref [4],[34]) [µM] | Kd [5] [µM] | Km (MTH1 [4]; ref [26]) [µM] |
| --- | --- | --- | --- | --- | --- | --- |
| Cn1c(=O)[nH]c2c(=O)[nH]c(N)nc21 [Compound 1] | 400 | > 100 |  |  |  |  |
| Nc1[nH]c(=O)nc2c1ncn2[C@H]1C[C@H](O)[C@@H](COP(=O)(O)OP(=O)(O)OP(=O)(O)O)O1 [Compound 2-OH-dATP, 2-OH-dATP] |  |  | 14 ± 6 µM | 8.3 |  |  |
| Nc1[nH]c(=O)nc2c1ncn2[C@@H]1O[C@H](COP(=O)(O)OP(=O)(O)OP(=O)(O)O)[C@@H](O)[C@H]1O [Compound 2-OH-rATP, 2-OH-rATP] |  |  | 13.4 µM and 13 µM | 4.3 |  |  |
| Cn1cnc2c(O)nc(N)nc21 [Compound 2] | 1100 | > 100 |  |  |  |  |
| CNc1nc2c(ncn2C)c(=O)[nH]1 [Compound 3] | 82 ± 6 | 59 |  |  | 24 ± 0.4 |  |
| CN(C)c1nc2c(ncn2C)c(=O)[nH]1 [Compound 4] | 2200 | > 100 |  |  |  |  |
| CC(=O)Nc1ccc2c(c1)ncn2C [Compound 5] | 95 ± 35 | > 80 |  |  | > 40 |  |
| Cc1cc(OCCCO)nc(N)n1 [Compound 6] | < 5 | 4.5 |  |  | 1.7 |  |
| CNc1cc(=O)[nH]c(=O)[nH]1 [Compound 7] | < 5 | 1.5 |  |  | 0.81 |  |
| Nc1ncnc2c1[nH]c(=O)n2[C@H]1C[C@H](O)[C@@H](COP(=O)(O)OP(=O)(O)OP(=O)(O)O)O1 [Compound 8-oxo-dATP, 8-oxo-dATP] |  |  | 7.6 ± 0.5 µM | 15.2 |  | 13.9 |
| Nc1ncnc2c1[nH]c(=O)n2[C@@H]1O[C@H](COP(=O)(O)OP(=O)(O)OP(=O)(O)O)[C@@H](O)[C@H]1O [Compound 8-oxo-rATP, 8-oxo-rATP] |  |  | 241 µM and 240 µM | 51 |  |  |
| Nc1nc2c([nH]c(=O)n2[C@@H]2O[C@H](COP(=O)(O)OP(=O)(O)OP(=O)(O)O)[C@@H](O)[C@H]2O)c(=O)[nH]1 [Compound 8-oxo-rGTP, 8-oxo-rGTP] |  |  | 82 ± 45 µM | 55 |  |  |
| Nc1nc2c(ncn2[C@H]2C[C@H](O)[C@@H](COP(=O)(O)OP(=O)(O)OP(=O)(O)O)O2)c(=O)[nH]1 [dGTP] |  |  | 420 µM | 258 |  |  |
